Columns and labels:
[1] = target: T1, human vasopressin V1a receptor (Homo sapiens, UniProt P37288); test: Functional assay on human vasopressin V1a receptor expressing cell line (intracellular Ca2+ fluorescence); format: cell-based; settings: 1321N1 cells, (Arg8)-vasopressin at EC80; read-out: IC50 (nM) on hV1a cell line
[2] = target: T1, human vasopressin V1a receptor; test: Human vasopressin V1a receptor binding assay; settings: 1321N1 cell membranes, [3H]vasopressin; read-out: Ki (nM) on hV1a cell line
How it was run: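 Ki values come from IC50 via Cheng-Prusoff (KD from prior Scatchard), averaged over at least two independent runs. Human V1a membranes were incubated with radioligand 60 minutes at 27° C., bound ligand collected by filtration; (Arg^8)-vasopressin at 1.2×10^−6 M defined non-specific binding.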

T1 sequence (P37288 whole entry): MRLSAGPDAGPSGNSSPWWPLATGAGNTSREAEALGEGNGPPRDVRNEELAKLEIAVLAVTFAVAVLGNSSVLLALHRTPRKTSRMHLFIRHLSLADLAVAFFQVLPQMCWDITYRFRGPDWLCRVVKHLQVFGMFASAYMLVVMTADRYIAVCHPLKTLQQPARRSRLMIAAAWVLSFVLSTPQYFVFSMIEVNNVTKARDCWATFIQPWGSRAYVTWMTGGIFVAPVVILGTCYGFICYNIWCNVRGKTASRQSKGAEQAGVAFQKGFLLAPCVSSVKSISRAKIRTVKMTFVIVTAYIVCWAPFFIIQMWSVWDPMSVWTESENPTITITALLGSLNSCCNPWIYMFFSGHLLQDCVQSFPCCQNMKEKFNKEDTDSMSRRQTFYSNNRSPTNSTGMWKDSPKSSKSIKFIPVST

SMILES | IC50 [1] | Ki [2]
COC1Cc2cc(Cl)ccc2-n2c(nnc2C2CCN(C(=O)c3ccccn3)C2)C1 (centres unmarked) [Example 189, [3-(8-chloro-5-methoxy-5,6-dihydro-4H-[1,2,4]triazolo[4,3-a][1]benzazepin-1-yl)pyrrolidin-1-yl](pyridin-2-yl)methanone] | 229 nM | 10 nM
CN(C)[C@H]1CC[C@H](c2nnc3n2-c2ccc(Cl)cc2CC2(C3)OCCO2)CC1 [Example 190, Trans-4-(8′-chloro-4′H,6′H-spiro[1,3-dioxolane-2,5′-[1,2,4]triazolo[4,3-a][1]benzazepin]-1′-yl)-N,N-dimethylcyclohexanamine] | 105 nM | 5.3 nM
COC1Cc2cc(Cl)ccc2-n2c(nnc2N2CCC3(CC2)OCc2ccccc23)C1 (centres unmarked) [Example 191, 8-chloro-5-methoxy-1-(1′H,3H-spiro[2-benzofuran-1,4′-piperidin]-1′-yl)-5,6-dihydro-4H-[1,2,4]triazolo[4,3-a][1]benzazepine] | 2.9 nM | 0.3 nM
COC1Cc2cc(Cl)ccc2-n2c(nnc2N2CCN(c3ncccc3Cl)CC2)C1 (centres unmarked) [Example 192, 8-chloro-1-[4-(3-chloropyridin-2-yl)piperazin-1-yl]-5-methoxy-5,6-dihydro-4H-[1,2,4]triazolo[4,3-a][1]benzazepine] | 6.3 nM | 0.8 nM
Clc1ccc2c(c1)CC1(Cc3nnc([C@H]4CC[C@H](Nc5ccccn5)CC4)n3-2)OCCO1 [Example 193, N-[trans-4-(8′-chloro-4′H,6′H-spiro[1,3-dioxolane-2,5′-[1,2,4]triazolo[4,3-a][1]benzazepin]-1′-yl)cyclohexyl]pyridin-2-amine] | 0.9 nM | 0.1 nM
CN(C)CCN[C@@H]1Cc2cc(Cl)ccc2-n2c(nnc2[C@H]2CC[C@H](Oc3ccccn3)CC2)C1 [Example 194, N′-{(5R)-8-chloro-1-[trans-4-(pyridin-2-yloxy)cyclohexyl]-5,6-dihydro-4H-[1,2,4]triazolo[4,3-a][1]benzazepin-5-yl}-N,N-dimethylethane-1,2-diamine] | 22 nM | 1.1 nM
CC(=O)OC1Cc2cc(Cl)ccc2-n2c(nnc2[C@H]2CC[C@H](Oc3ccccn3)CC2)C1 (stereo partly drawn) [Example 195, 8-chloro-1-[trans-4-(pyridin-2-yloxy)cyclohexyl]-5,6-dihydro-4H-[1,2,4]triazolo[4,3-a][1]benzazepin-5-yl acetate] | 1.6 nM | 0.3 nM
OCCN[C@@H]1Cc2cc(Cl)ccc2-n2c(nnc2[C@H]2CC[C@H](Oc3ccccn3)CC2)C1 [Example 196, 2-({(5R)-8-chloro-1-[trans-4-(pyridin-2-yloxy)cyclohexyl]-5,6-dihydro-4H-[1,2,4]triazolo[4,3-a][1]benzazepin-5-yl}amino)ethanol] | 2.7 nM | 0.5 nM
COC1Cc2cc(Cl)ccc2-n2c(nnc2N2CCC(Oc3ccccn3)CC2)C1 (centres unmarked) [Example 197, 8-chloro-5-methoxy-1-[4-(pyridin-2-yloxy)piperidin-1-yl]-5,6-dihydro-4H-[1,2,4]triazolo[4,3a][1]benzazepine] | 4.1 nM | 0.3 nM
Clc1ccc2c(c1)C[C@H](NCC1CC1)Cc1nnc([C@H]3CC[C@H](Oc4ccccn4)CC3)n1-2 [Example 199] | 23 nM | 2.2 nM
CN1CCC(C(=O)N[C@H]2Cc3cc(Cl)ccc3-n3c(nnc3[C@H]3CC[C@H](Oc4ccccn4)CC3)C2)CC1 [Example 200] | 1190 nM | 114 nM
O=C(N[C@H]1Cc2cc(Cl)ccc2-n2c(nnc2[C@H]2CC[C@H](Oc3ccccn3)CC2)C1)C(F)(F)F [Example 201] | 19 nM | 3.9 nM
COCCOC1Cc2cc(Cl)ccc2-n2c(nnc2[C@H]2CC[C@H](Oc3ccccn3)CC2)C1 (stereo partly drawn) [Example 202, 8-chloro-5-(2-methoxyethoxy)-1-[trans-4-(pyridin-2-yloxy)cyclohexyl]-5,6-dihydro-4H-[1,2,4]triazolo[4,3-a][1]benzazepine] | 1 nM | 0.4 nM
FC1Cc2cc(Cl)ccc2-n2c(nnc2[C@H]2CC[C@H](Oc3ccccn3)CC2)C1 (stereo partly drawn) [Example 206, 8-chloro-5-fluoro-1-[trans-4-(pyridin-2-yloxy)cyclohexyl]-5,6-dihydro-4H-[1,2,4]triazolo[4,3-a][1]benzazepine] | 0.9 nM | 0.2 nM
CS(=O)(=O)CCOC1Cc2cc(Cl)ccc2-n2c(nnc2[C@H]2CC[C@H](Oc3ccccn3)CC2)C1 (stereo partly drawn) [Example 207, 8-chloro-5-[2-(methylsulfonyl)ethoxy]-1-[trans-4-(pyridin-2-yloxy)cyclohexyl]-5,6-dihydro-4H-[1,2,4]triazolo[4,3-a][1]benzazepine] | 4.2 nM | 0.3 nM
O/N=C1/Cc2cc(Cl)ccc2-n2c(nnc2[C@H]2CC[C@H](Oc3ccccn3)CC2)C1 [Example 208, 8-chloro-N-hydroxy-1-[trans-4-(pyridin-2-yloxy)cyclohexyl]-4H-[1,2,4]triazolo[4,3-a][1]benzazepin-5(6H)-imine] | 2.2 nM | 0.1 nM
C#CCN(C)[C@H]1Cc2cc(Cl)ccc2-n2c(nnc2[C@H]2CC[C@H](Oc3ccccn3)CC2)C1 [Example 209, (5S)-8-chloro-N-methyl-N-(prop-2-yn-1-yl)-1-[trans-4-(pyridin-2-yloxy)cyclohexyl]-5,6-dihydro-4H-[1,2,4]triazolo[4,3-a][1]benzazepin-5-amine] | 1.6 nM | 0.2 nM
O=C(N[C@H]1Cc2cc(Cl)ccc2-n2c(nnc2[C@H]2CC[C@H](Oc3ccccn3)CC2)C1)C1CC(F)(F)C1 [Example 210, N-{(5S)-8-chloro-1-[trans-4-(pyridin-2-yloxy)cyclohexyl]-5,6-dihydro-4H-[1,2,4]triazolo[4,3-a][1]benzazepin-5-yl}-3,3-difluorocyclobutanecarboxamide] | 292 nM | 56 nM
C#CCOC1Cc2cc(Cl)ccc2-n2c(nnc2[C@H]2CC[C@H](Oc3ccccn3)CC2)C1 (stereo partly drawn) [Example 211, 8-chloro-5-(prop-2-yn-1-yloxy)-1-[trans-4-(pyridin-2-yloxy)cyclohexyl]-5,6-dihydro-4H-[1,2,4]triazolo[4,3-a][1]benzazepine] | 1.3 nM | 0.7 nM
O=C(OC1Cc2cc(Cl)ccc2-n2c(nnc2[C@H]2CC[C@H](Oc3ccccn3)CC2)C1)C1CCC(F)(F)CC1 (stereo partly drawn) [Example 212, 8-chloro-1-[trans-4-(pyridin-2-yloxy)cyclohexyl]-5,6-dihydro-4H-[1,2,4]triazolo[4,3-a][1]benzazepin-5-yl 4,4-difluorocyclohexanecarboxylate] | 34 nM | 2.8 nM
O=C(OC1Cc2cc(Cl)ccc2-n2c(nnc2[C@H]2CC[C@H](Oc3ccccn3)CC2)C1)C1CC(F)(F)C1 (stereo partly drawn) [Example 213, 8-chloro-1-[trans-4-(pyridin-2-yloxy)cyclohexyl]-5,6-dihydro-4H-[1,2,4]triazolo[4,3-a][1]benzazepin-5-yl 3,3-difluorocyclobutanecarboxylate] | 5.5 nM | 0.6 nM
O=C(N[C@H]1Cc2cc(Cl)ccc2-n2c(nnc2[C@H]2CC[C@H](Oc3ccccn3)CC2)C1)C1CCC(F)(F)CC1 [Example 214, N-{(5S)-8-chloro-1-[trans-4-(pyridin-2-yloxy)cyclohexyl]-5,6-dihydro-4H-[1,2,4]triazolo[4,3-a][1]benzazepin-5-yl}-4,4-difluorocyclohexanecarboxamide] | 672 nM | 66 nM
